Laboratory results reported in PubChem BioAssay (NCI).
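GI50 = concentration required for 50% inhibition of growth. TGI: total growth inhibition.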

Legend:
Assay in all cases: DTP human tumour cell line panel, 384-well format
SR leukemia = test system: SR leukemia
K-562 leukemia = test system: K-562 leukemia
A549 NSCLC = test system: A549 NSCLC
SNB-75 CNS = test system: SNB-75 CNS
HL-60(TB) leukemia = test system: HL-60(TB) leukemia
COLO 205 colon = test system: COLO 205 colon
MDA-MB-231 breast = test system: MDA-MB-231 breast
OVCAR-4 ovarian = test system: OVCAR-4 ovarian
SN12C renal = test system: SN12C renal
MCF7 breast = test system: MCF7 breast
LOX IMVI melanoma = test system: LOX IMVI melanoma
SNB-19 CNS = test system: SNB-19 CNS
OVCAR-3 ovarian = test system: OVCAR-3 ovarian
HCT-116 colon = test system: HCT-116 colon
UACC-62 melanoma = test system: UACC-62 melanoma
OVCAR-8 ovarian = test system: OVCAR-8 ovarian
HCC-2998 colon = test system: HCC-2998 colon
UO-31 renal = test system: UO-31 renal
U251 glioblastoma = test system: U251 glioblastoma
786-0 renal = test system: 786-0 renal
BT-549 breast = test system: BT-549 breast
SK-OV-3 ovarian = test system: SK-OV-3 ovarian
NCI-H226 lung = test system: NCI-H226 lung
SK-MEL-28 melanoma = test system: SK-MEL-28 melanoma
HT29 colon = test system: HT29 colon
NCI-H522 lung = test system: NCI-H522 lung
HS 578T breast = test system: HS 578T breast
HCT-15 colon = test system: HCT-15 colon
DU-145 prostate = test system: DU-145 prostate
MALME-3M melanoma = test system: MALME-3M melanoma
NCI-H460 NSCLC = test system: NCI-H460 NSCLC
HOP-62 NSCLC = test system: HOP-62 NSCLC
EKVX NSCLC = test system: EKVX NSCLC
NCI/ADR-RES ovarian = test system: NCI/ADR-RES ovarian
TK-10 renal = test system: TK-10 renal
RXF 393 renal = test system: RXF 393 renal
ACHN renal = test system: ACHN renal
UACC-257 melanoma = test system: UACC-257 melanoma
KM12 colon = test system: KM12 colon
MDA-MB-435 melanoma = test system: MDA-MB-435 melanoma
CCRF-CEM leukemia = test system: CCRF-CEM leukemia
T-47D breast = test system: T-47D breast
MDA-MB-468 breast = test system: MDA-MB-468 breast
HOP-92 NSCLC = test system: HOP-92 NSCLC
MOLT-4 leukemia = test system: MOLT-4 leukemia
SF-295 CNS = test system: SF-295 CNS
SK-MEL-5 melanoma = test system: SK-MEL-5 melanoma
CAKI-1 renal = test system: CAKI-1 renal
RPMI-8226 leukemia = test system: RPMI-8226 leukemia
M14 melanoma = test system: M14 melanoma
SF-539 CNS = test system: SF-539 CNS
NCI-H322M lung = test system: NCI-H322M lung
SW-620 colon = test system: SW-620 colon
IGROV1 ovarian = test system: IGROV1 ovarian
PC-3 prostate = test system: PC-3 prostate
SF-268 CNS = test system: SF-268 CNS
NCI-H23 lung = test system: NCI-H23 lung
A498 renal = test system: A498 renal

Molecule `Cc1nc2ccc(NC(=O)CCNC(=O)CCCc3ccc(CC(C(=O)O)C(=O)O)cc3)cc2s1` has a GI50 (SR leukemia) greater than 100 µM, a TGI (SR leukemia) greater than 100 µM and a GI50 (K-562 leukemia) greater than 100 µM. It also gave a TGI (K-562 leukemia) greater than 100 µM, a GI50 (A549 NSCLC) greater than 100 µM and a TGI (A549 NSCLC) greater than 100 µM. For the same molecule, the GI50 (SNB-75 CNS) was greater than 100 µM, the TGI (SNB-75 CNS) was greater than 100 µM and the GI50 (HL-60(TB) leukemia) was greater than 100 µM. The TGI (HL-60(TB) leukemia) was greater than 100 µM, the GI50 (COLO 205 colon) was greater than 100 µM and the TGI (COLO 205 colon) was greater than 100 µM. For the same molecule, the GI50 (MDA-MB-231 breast) was greater than 100 µM, the TGI (MDA-MB-231 breast) was greater than 100 µM and the GI50 (OVCAR-4 ovarian) was greater than 100 µM. For the same molecule, the TGI (OVCAR-4 ovarian) was greater than 100 µM, the GI50 (SN12C renal) was greater than 100 µM and the TGI (SN12C renal) was greater than 100 µM. It also gave a GI50 (MCF7 breast) greater than 100 µM, a TGI (MCF7 breast) greater than 100 µM and a GI50 (LOX IMVI melanoma) greater than 100 µM. The TGI (LOX IMVI melanoma) was greater than 100 µM, the GI50 (SNB-19 CNS) was greater than 100 µM and the TGI (SNB-19 CNS) was greater than 100 µM. The GI50 (OVCAR-3 ovarian) was greater than 100 µM, the TGI (OVCAR-3 ovarian) was greater than 100 µM and the GI50 (HCT-116 colon) was greater than 100 µM. It also gave a TGI (HCT-116 colon) greater than 100 µM, a GI50 (UACC-62 melanoma) greater than 100 µM and a TGI (UACC-62 melanoma) greater than 100 µM. For the same molecule, the GI50 (OVCAR-8 ovarian) was greater than 100 µM, the TGI (OVCAR-8 ovarian) was greater than 100 µM and the GI50 (HCC-2998 colon) was greater than 100 µM. The TGI (HCC-2998 colon) was greater than 100 µM, the GI50 (UO-31 renal) was greater than 100 µM and the TGI (UO-31 renal) was greater than 100 µM. It also gave a GI50 (U251 glioblastoma) greater than 100 µM, a TGI (U251 glioblastoma) greater than 100 µM and a GI50 ([…]-0 renal) greater than 100 µM. It also gave a TGI (786-0 renal) greater than 100 µM, a GI50 (BT-549 breast) greater than 100 µM and a TGI (BT-549 breast) greater than 100 µM. For the same molecule, the GI50 (SK-OV-3 ovarian) was greater than 100 µM, the TGI (SK-OV-3 ovarian) was greater than 100 µM and the GI50 (NCI-H226 lung) was greater than 100 µM. It also gave a TGI (NCI-H226 lung) greater than 100 µM, a GI50 (SK-MEL-28 melanoma) greater than 100 µM and a TGI (SK-MEL-28 melanoma) greater than 100 µM. For the same molecule, the GI50 (HT29 colon) was greater than 100 µM, the TGI (HT29 colon) was greater than 100 µM and the GI50 (NCI-H522 lung) was greater than 100 µM. The TGI (NCI-H522 lung) was greater than 100 µM, the GI50 (HS 578T breast) was greater than 100 µM and the TGI (HS 578T breast) was greater than 100 µM. For the same molecule, the GI50 (HCT-15 colon) was greater than 100 µM, the TGI (HCT-15 colon) was greater than 100 µM and the GI50 (DU-145 prostate) was greater than 100 µM. It also gave a TGI (DU-145 prostate) greater than 100 µM, a GI50 (MALME-3M melanoma) greater than 100 µM and a TGI (MALME-3M melanoma) greater than 100 µM. The GI50 (NCI-H460 NSCLC) was greater than 100 µM, the TGI (NCI-H460 NSCLC) was greater than 100 µM and the GI50 (HOP-62 NSCLC) was greater than 100 µM. For the same molecule, the TGI (HOP-62 NSCLC) was greater than 100 µM, the GI50 (EKVX NSCLC) was greater than 100 µM and the TGI (EKVX NSCLC) was greater than 100 µM. The GI50 (NCI/ADR-RES ovarian) was greater than 100 µM, the TGI (NCI/ADR-RES ovarian) was greater than 100 µM and the GI50 (TK-10 renal) was greater than 100 µM. For the same molecule, the TGI (TK-10 renal) was greater than 100 µM, the GI50 (RXF 393 renal) was greater than 100 µM and the TGI (RXF 393 renal) was greater than 100 µM. The GI50 (ACHN renal) was greater than 100 µM, the TGI (ACHN renal) was greater than 100 µM and the GI50 (UACC-257 melanoma) was greater than 100 µM. For the same molecule, the TGI (UACC-257 melanoma) was greater than 100 µM, the GI50 (KM12 colon) was greater than 100 µM and the TGI (KM12 colon) was greater than 100 µM. For the same molecule, the GI50 (MDA-MB-435 melanoma) was greater than 100 µM, the TGI (MDA-MB-435 melanoma) was greater than 100 µM and the GI50 (CCRF-CEM leukemia) was greater than 100 µM. For the same molecule, the TGI (CCRF-CEM leukemia) was greater than 100 µM, the GI50 (T-47D breast) was greater than 100 µM and the TGI (T-47D breast) was greater than 100 µM. It also gave a GI50 (MDA-MB-468 breast) greater than 100 µM, a TGI (MDA-MB-468 breast) greater than 100 µM and a GI50 (HOP-92 NSCLC) greater than 100 µM. For the same molecule, the TGI (HOP-92 NSCLC) was greater than 100 µM, the GI50 (MOLT-4 leukemia) was greater than 100 µM and the TGI (MOLT-4 leukemia) was greater than 100 µM. The GI50 (SF-295 CNS) was greater than 100 µM, the TGI (SF-295 CNS) was greater than 100 µM and the GI50 (SK-MEL-5 melanoma) was greater than 100 µM. For the same molecule, the TGI (SK-MEL-5 melanoma) was greater than 100 µM, the GI50 (CAKI-1 renal) was greater than 100 µM and the TGI (CAKI-1 renal) was greater than 100 µM. It also gave a GI50 (RPMI-8226 leukemia) greater than 100 µM, a TGI (RPMI-8226 leukemia) greater than 100 µM and a GI50 (M14 melanoma) greater than 100 µM. It also gave a TGI (M14 melanoma) greater than 100 µM, a GI50 (SF-539 CNS) greater than 100 µM and a TGI (SF-539 CNS) greater than 100 µM. For the same molecule, the GI50 (NCI-H322M lung) was greater than 100 µM, the TGI (NCI-H322M lung) was greater than 100 µM and the GI50 (SW-620 colon) was greater than 100 µM. It also gave a TGI (SW-620 colon) greater than 100 µM, a GI50 (IGROV1 ovarian) greater than 100 µM and a TGI (IGROV1 ovarian) greater than 100 µM. The GI50 (PC-3 prostate) was greater than 100 µM, the TGI (PC-3 prostate) was greater than 100 µM and the GI50 (SF-268 CNS) was greater than 100 µM. For the same molecule, the TGI (SF-268 CNS) was greater than 100 µM, the GI50 (NCI-H23 lung) was greater than 100 µM and the TGI (NCI-H23 lung) was greater than 100 µM. For the same molecule, the GI50 (A498 renal) was greater than 100 µM and the TGI (A498 renal) was greater than 100 µM.
